According to US20250367106A1, “Topical Formulation for Improving Skin Quality and Inducing the Release of Oxytocin” (OX Technology IP LLC, priority 2024, published 2025):

Assay: ratings of trustworthiness and attractiveness of unfamiliar faces (FIG. 3)
Format: in vivo, human
Conditions: people under the influence of the hormone compared to control groups who were not
Text: As has been explained, the first set 14 of active ingredients create a reaction in the body that induces the production of hormones and/or pheromones. Hormones, such as oxytocin and its kind promote improved social behavior and enhances positive social perceptions of others. […] Oxytocin also masks negative personality perceptions that masculinized faces tend to elicit.

## CC[C@H](C)[C@@H]1NC(=O)[C@H](Cc2ccc(O)cc2)NC(=O)[C@@H](N)CSSC[C@@H](C(=O)N2CCC[C@H]2C(=O)N[C@@H](CC(C)C)C(=O)NCC(N)=O)NC(=O)[C@H](CC(N)=O)NC(=O)[C@H](CCC(N)=O)NC1=O [oxytocin]
  ratings of "trustworthiness" and "attractiveness" of unfamiliar faces: higher ratings
